# Patent US12173003B1, “Pyrrolo[3,2-C][2,6]naphthyridine-2-carboxylic acid compounds as CK2 inhibitors” (KING FAISAL UNIVERSITY, priority 2023, dated 2024)
# Key:
# H1299 (lung) = assay: In vitro cytotoxic activity MTT assay, H1299; assay type: cell-based; conditions: Homo sapiens, NCI-H1299; H1299 cells, exposed for 96 hours; read-out: IC50, 50% inhibition of cell proliferation, H1299 (lung)
# Protocol: (§1) Compounds 1-16 were screened for their in vitro cytotoxic activity utilizing a 3-(4,5-dimethyl-thiazol-2-yl)-2,5-diphenyltetrazolium bromide (MTT) assay against selected cancer human cell lines consisting of PC3 (prostate), HCT116 (colon), A375 (melanoma), H1299 (lung), MIAPaCa-2 (pancreas), HL60 (leukemia), MCF7 (breast), MDA-MB-231 (breast) (T. Mosmann, J. Immunol. Meth., 1983, 65, 55-63). The cells were cultured at 37° C. in RMPI1640 medium supplemented with 10% fetal bovine serum, 50 IU/mL penicillin, and 50 μg/mL streptomycin in a 5% CO2 incubator. All cells were sub-cultured 3 times/week by trypsinisation. Viable cells were seeded and allowed to adhere for 12 h before a test drug was added in 96-well plates at an initial density of 1.0×10^5 cells/mL. Tumour cell lines were separately exposed to various concentrations of the tested compounds followed by incubation at a temperature of 37° C. during 96 h inside a medium of fresh RMPI 1640. Cells were subsequently incubated at 37° C. using MTT at 0.5 mg/mL during 4 h. After removal of supernatant, formazan crystals were dissolved in isopropanol and the optical density was measured at 570 nm. CX-4945 was used as a positive control.
# PC3 (prostate) = assay: In vitro cytotoxic activity MTT assay, PC3; assay type: cell-based; conditions: Homo sapiens, PC-3; PC3 cells, exposed for 96 hours; read-out: IC50, 50% inhibition of cell proliferation, PC3 (prostate)
# Protocol: as §1
# MCF7 (breast) = assay: In vitro cytotoxic activity MTT assay, MCF7; assay type: cell-based; conditions: Homo sapiens; MCF7 cells, exposed for 96 hours; read-out: IC50, 50% inhibition of cell proliferation, MCF7 (breast)
# Protocol: as §1
# HL60 (leukemia) = assay: In vitro cytotoxic activity MTT assay, HL60; assay type: cell-based; conditions: Homo sapiens, HL-60; HL60 cells, exposed for 96 hours; read-out: IC50, 50% inhibition of cell proliferation, HL60 (leukemia)
# Protocol: as §1
# recombinant human CK2 = biological target: T1, recombinant human CK2 (Homo sapiens, UniProt P68400); assay: CK2 Kinase Assay (33P-ATP, filter plate); assay type: biochemical; conditions: final ATP concentration 15 μM, 10 min at 30° C.; read-out: protein kinase CK2 IC50
# T1 construct: purchased Millipore
# T1 sequence (P68400 whole entry): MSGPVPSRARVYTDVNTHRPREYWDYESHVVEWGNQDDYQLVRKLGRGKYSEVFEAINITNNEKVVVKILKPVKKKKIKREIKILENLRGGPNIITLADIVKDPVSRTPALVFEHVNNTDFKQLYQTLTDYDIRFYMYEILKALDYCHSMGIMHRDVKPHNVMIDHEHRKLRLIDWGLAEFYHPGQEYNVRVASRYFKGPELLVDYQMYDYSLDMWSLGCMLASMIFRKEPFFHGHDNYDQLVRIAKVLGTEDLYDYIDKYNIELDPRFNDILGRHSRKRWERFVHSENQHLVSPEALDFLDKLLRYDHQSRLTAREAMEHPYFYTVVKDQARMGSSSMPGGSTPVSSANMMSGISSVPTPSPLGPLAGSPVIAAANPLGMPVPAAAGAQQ
# T1 sequence (P67870 whole entry partner): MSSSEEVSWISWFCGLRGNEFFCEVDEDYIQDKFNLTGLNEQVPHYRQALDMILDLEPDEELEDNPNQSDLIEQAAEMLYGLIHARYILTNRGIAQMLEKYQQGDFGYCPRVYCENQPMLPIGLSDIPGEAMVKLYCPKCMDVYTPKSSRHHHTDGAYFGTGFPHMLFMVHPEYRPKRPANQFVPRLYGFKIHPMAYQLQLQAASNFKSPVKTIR
# Protocol: CK2 Kinase Assay was conducted using the protocol as described in Pierre F. et al; J. Med. Chem. 2011, 54, 635-654. The tested compounds in aqueous solution were added at a volume of 10 μL to a reaction mixture comprising 10 μL of assay dilution buffer (ADB; 20 mM MOPS, pH 7.2, 25 mM β-glycerol phosphate, 5 mM EGTA, 1 mM sodium orthovanadate, and 1 mM dithiothreitol), 10 μL of substrate peptide (RRRDDDSDDD, dissolved in ADB at a concentration of 1 mM), 10 μL of recombinant human CK2 (RRββ-holoenzyme, 25 ng dissolved in ADB; Millipore). Reactions were initiated by the addition of 10 μL of ATP solution (90% 75 mMMgCl2, 75 μM ATP (final ATP concentration:15 μM) dissolved in ADB; 10% [γ-33P] ATP (stock 1 mCi/100 μL; 3000 Ci/mmol (Perkin-Elmer) and maintained for 10 min at 30° C. The reactions were quenched with 100 μL of 0.75% phosphoric acid and then transferred to and filtered through a phosphor cellulose filter plate (Millipore). After washing each well five times with 0.75% phosphoric acid, the plate was dried under vacuum for 5 min and, following the addition of 15 μL of scintillation fluid to each well, the residual radioactivity was measured using a Wallac luminescence counter. The IC50 values were derived from eight concentrations of test inhibitors.
# HCT116 (colon) = assay: In vitro cytotoxic activity MTT assay, HCT116; assay type: cell-based; conditions: Homo sapiens, HCT-116; HCT116 cells, exposed for 96 hours; read-out: IC50, 50% inhibition of cell proliferation, HCT116 (colon)
# Protocol: as §1
# MIAPaCa-2 (pancreas) = assay: In vitro cytotoxic activity MTT assay, MIAPaCa-2; assay type: cell-based; conditions: Homo sapiens, MIA PaCa-2; MIAPaCa-2 cells, exposed for 96 hours; read-out: IC50, 50% inhibition of cell proliferation, MIAPaCa-2 (pancreas)
# Protocol: as §1
# A375 (melanoma) = assay: In vitro cytotoxic activity MTT assay, A375; assay type: cell-based; conditions: Homo sapiens, A-375; A375 cells, exposed for 96 hours; read-out: IC50, 50% inhibition of cell proliferation, A375 (melanoma)
# Protocol: as §1
# MDA-MB-231 (breast) = assay: In vitro cytotoxic activity MTT assay, MDA-MB-231; assay type: cell-based; conditions: Homo sapiens; MDA-MB-231 cells, exposed for 96 hours; read-out: IC50, 50% inhibition of cell proliferation, MDA-MB-231 (breast)
# Protocol: as §1
structure (smiles),measurement,setting,value
"O=C(O)c1cc2nc(Nc3cccc(Cl)c3)c3ccncc3c2[nH]1 [Compound 1, 5-((3-chlorophenyl)amino)-1H-pyrrolo[3,2-c][2,6]naphthyridine-2-carboxylic acid]",IC50,H1299 (lung),1.5 µM
same,IC50,PC3 (prostate),2.4 µM
same,IC50,MCF7 (breast),3.5 µM
same,IC50,HL60 (leukemia),2.2 µM
same,IC50,recombinant human CK2,0.021 µM
same,IC50,HCT116 (colon),1.1 µM
same,IC50,MIAPaCa-2 (pancreas),0.9 µM
same,IC50,A375 (melanoma),2.6 µM
same,IC50,MDA-MB-231 (breast),3.9 µM
